Measurements published in ChEMBL document CHEMBL1146254, “Identification of Sansalvamide a analog potent against pancreatic cancer cell lines” (Bioorg Med Chem Lett, 2007).
Where a SMILES comes first, the peptide text is derived from it. [ ]: non-standard residue; d: D form. Cha = N[C@@H](CC1CCCCC1)C(=O)O; NMeL = CN[C@@H](CC(C)C)C(=O)O; dNMeL = CN[C@H](CC(C)C)C(=O)O; dNMeV = CN[C@@H](C(=O)O)C(C)C; dAbu = CC[C@@H](N)C(=O)O

Assays:
Conditions in all cases: Homo sapiens
[1] = Cytotoxicity against PL45 cells at 5 uM by [3H]thymidine inhibition assay; format: functional, cell-based
BXPC-3 = experiment: Cytotoxicity against BxPC3 cells at 5 uM by [3H]thymidine inhibition assay; format: functional, cell-based
[2] = Cytotoxicity against WS1 cells; format: cell-based

SMILES | inhibition at 5 µM [1] [%] | inhibition at 5 µM (BXPC-3) [%] | IC50 [1] [µM] | IC50 (BXPC-3) [µM] | IC50 [2] [µM]
CC(C)C[C@@H]1NC(=O)[C@H](Cc2ccccc2)NC(=O)[C@H](CC(C)C)NC(=O)[C@@H](C(C)C)NC(=O)[C@H](CCCCNC(=O)Cc2ccccc2)NC1=O | 29 | 29 | – | – | –
CC(C)C[C@@H]1NC(=O)[C@H](Cc2ccccc2)NC(=O)[C@@H](CC(C)C)N(C)C(=O)[C@H](CC(C)C)NC(=O)[C@H](CC(C)C)NC1=O | 5 | 2 | – | – | –
CC(C)C[C@@H]1NC(=O)[C@H](CC(C)C)NC(=O)[C@H](CC(C)C)NC(=O)[C@@H](Cc2c[nH]c3ccccc23)NC(=O)[C@H](CC(C)C)NC1=O | 18 | 30 | – | – | –
CC(C)C[C@@H]1NC(=O)[C@H](Cc2ccccc2)NC(=O)[C@H](CC(C)C)N(C)C(=O)[C@H](CC(C)C)NC(=O)[C@H](CC(C)C)NC1=O | 27 | 46 | – | – | –
CC(C)C[C@@H]1NC(=O)[C@H](CC(C)C)NC(=O)[C@H](Cc2ccccc2)NC(=O)[C@@H](CC(C)C)NC(=O)[C@H](CC(C)C)NC1=O | 41 | 34 | – | – | –
CC(C)C[C@@H]1NC(=O)[C@H](Cc2ccccc2)NC(=O)[C@H](CC(C)C)NC(=O)[C@H](CC(C)C)NC(=O)[C@H](CC(C)C)NC1=O | 25 | 42 | 70 | 25 | 200
CC(C)C[C@@H]1NC(=O)[C@H](CC(C)C)NC(=O)[C@H](Cc2ccccc2)NC(=O)[C@@H](CO)NC(=O)[C@H](CC(C)C)NC1=O | 32 | 25 | – | – | –
CC(C)C[C@@H]1NC(=O)[C@H](CC(C)C)NC(=O)[C@H](Cc2ccccc2)N(C)C(=O)[C@H](CC(C)C)NC(=O)[C@H](CC(C)C)NC1=O | 44 | 62 | 5 | 2 | 200
CC(C)C[C@@H]1NC(=O)[C@H](CC(C)C)NC(=O)[C@H](CC(C)C)NC(=O)[C@@H](Cc2ccccc2)NC(=O)[C@H](CC(C)C)NC1=O | 48 | 64 | 5 | 2 | 200
CC(C)C[C@@H]1NC(=O)[C@H](CC(C)C)NC(=O)[C@H](Cc2ccccc2)NC(=O)[C@@H](Cc2ccccc2)NC(=O)[C@H](CC(C)C)NC1=O | 45 | 21 | – | – | –
CC(C)C[C@@H]1NC(=O)[C@H](CC(C)C)NC(=O)[C@H](CC(C)C)NC(=O)[C@@H](Cc2ccc(O)cc2)NC(=O)[C@H](CC(C)C)NC1=O | 46 | 33 | – | – | –
CC(C)C[C@@H]1NC(=O)[C@H](Cc2ccccc2)NC(=O)[C@H](CC(C)C)NC(=O)[C@@H](C(C)C)NC(=O)[C@H](CCCCN)NC1=O (cyclo(FLK[dV]L)) | 20 | 16 | – | – | –
CC[C@H]1NC(=O)[C@H](CC(C)C)NC(=O)[C@H](CC(C)C)NC(=O)[C@H](Cc2ccccc2)NC(=O)[C@H](CC(C)C)NC1=O (cyclo(FLL[dAbu]L)) | 12 | 17 | – | – | –
CC(C)C[C@@H]1NC(=O)[C@H](Cc2ccccc2)NC(=O)[C@H](CC(C)C)NC(=O)[C@@H](Cc2ccccc2)NC(=O)[C@H](CC(C)C)NC1=O (cyclo(FLL[dF]L)) | 33 | 8 | – | – | –
CC(C)C[C@@H]1NC(=O)[C@H](Cc2ccccc2)NC(=O)[C@H](CC(C)C)NC(=O)[C@@H](C(C)C)N(C)C(=O)[C@H](CC(C)C)NC1=O (cyclo(FLL[dNMeV]L)) | 29 | 34 | – | – | –
CC(C)C[C@@H]1NC(=O)[C@H](Cc2ccccc2)NC(=O)[C@H](CC(C)C)NC(=O)[C@@H](CO)NC(=O)[C@H](CC(C)C)NC1=O (cyclo(FLL[dS]L)) | 25 | 22 | – | – | –
CC(C)C[C@@H]1NC(=O)[C@H](Cc2ccccc2)NC(=O)[C@H](CC(C)C)NC(=O)[C@@H](C(C)C)NC(=O)[C@H](CC(C)C)NC1=O (cyclo(FLL[dV]L)) | 74 | 50 | 1.4 | 5 | 20
CC(C)C[C@@H]1NC(=O)[C@H](Cc2ccccc2)NC(=O)[C@@H](CC(C)C)NC(=O)[C@@H](C(C)C)NC(=O)[C@H](CC(C)C)NC1=O (cyclo(FLL[dV][dL])) | 41 | 16 | – | – | –
CC(C)C[C@@H]1NC(=O)[C@H](C(C)C)NC(=O)[C@H](CC(C)C)N(C)C(=O)[C@H](CC(C)C)NC(=O)[C@H](Cc2ccccc2)NC1=O (cyclo(FL[NMeL]VL)) | 45 | 2 | – | – | –
CC(C)C[C@@H]1NC(=O)[C@H](Cc2ccccc2)NC(=O)[C@H](CC(C)C)NC(=O)[C@H](C(C)C)NC(=O)[C@@H](CC(C)C)NC1=O (cyclo(FL[dL]VL)) | 24 | 74 | – | – | –
CC(C)C[C@@H]1NC(=O)[C@H](C(C)C)NC(=O)[C@H](CC(C)C)NC(=O)[C@H](CC(C)C)N(C)C(=O)[C@H](Cc2ccccc2)NC1=O (cyclo(F[NMeL]LVL)) | 55 | 59 | 3 | 2 | 200
CC(C)C[C@@H]1NC(=O)[C@@H](C(C)C)NC(=O)[C@H](CC(C)C)NC(=O)[C@H](CC(C)C)N(C)C(=O)[C@H](Cc2ccccc2)NC1=O (cyclo(F[NMeL]L[dV]L)) | 26 | 2 | – | – | –
CC(C)C[C@@H]1NC(=O)[C@H](C(C)C)NC(=O)[C@H](CC(C)C)NC(=O)[C@@H](CC(C)C)NC(=O)[C@H](Cc2ccccc2)NC1=O (cyclo(F[dL]LVL)) | 73 | 29 | – | – | –
CC(C)C[C@@H]1NC(=O)[C@@H](C(C)C)N(C)C(=O)[C@H](CC(C)C)NC(=O)[C@@H](CC(C)C)NC(=O)[C@H](Cc2ccccc2)NC1=O (cyclo(F[dL]L[dNMeV]L)) | 21 | 35 | – | – | –
CC(C)C[C@@H]1NC(=O)[C@@H](CC(C)C)NC(=O)[C@H](Cc2ccccc2)NC(=O)[C@H](CC(C)C)NC(=O)[C@@H](C(C)C)NC1=O (cyclo(F[dL]L[dV]L)) | 32 | 13 | – | – | –
CC(C)C[C@@H]1NC(=O)[C@H](C(C)C)NC(=O)[C@H](CC(C)C)N(C)C(=O)[C@@H](CC(C)C)NC(=O)[C@H](Cc2ccccc2)NC1=O (cyclo(F[dL][NMeL]VL)) | 25 | 71 | – | – | –
CC(C)C[C@@H]1NC(=O)[C@H](C(C)C)NC(=O)[C@@H](CC(C)C)NC(=O)[C@@H](CC(C)C)NC(=O)[C@H](Cc2ccccc2)NC1=O (cyclo(F[dL][dL]VL)) | 51 | 78 | 5 | 1.4 | 200
CC(C)C[C@@H]1NC(=O)[C@H](CC(C)C)NC(=O)[C@@H](Cc2ccccc2)NC(=O)[C@@H](CC(C)C)NC(=O)[C@@H](C(C)C)NC1=O (cyclo(LL[dV][dL][dF])) | 67 | 34 | – | – | –
CC(C)C[C@@H]1NC(=O)[C@H](Cc2ccccc2)NC(=O)[C@H](CC(C)C)NC(=O)[C@@H](C(C)C)N(C)C(=O)[C@H](CC2CCCCC2)NC1=O (cyclo([Cha][dNMeV]LFL)) | 45 | 52 | – | – | –
CC(C)C[C@@H]1NC(=O)[C@H](C(C)C)NC(=O)[C@H](CC(C)C)NC(=O)[C@@H](CC(C)C)N(C)C(=O)[C@H](Cc2ccccc2)NC1=O (cyclo([dNMeL]LVLF)) | 52 | 51 | 3.5 | 3.8 | 200
